Source: patent US6362369B1, “Phthalic acid diamide derivatives fluorine-containing aniline compounds as starting material, agricultural and horticultural insecticides, and a method for application of the insecticides” (Nihon Nohyaku Co., Ltd., priority 1997, dated 2002)

What follows are compounds tested on diamondback moth (Plutella xylostella) (assay: Insecticidal effect on diamondback moth (Test Example 1)). Conditions: diamondback moth; judged by the mortality criterion of Test Example 1.
Format: in vivo
Protocol: Insecticidal effect on diamondback moth (Plutella xylostella) Adult diamondback moths were released and allowed to oviposit on a Chinese cabbage seedling. […] After air-drying, it was allowed to stand in a room thermostated at 25° C. Six days after the immersion, the hatched insects were counted. The mortality was calculated according to the following equation and the insecticidal effect was judged according to the criterion shown below. The test was carried out with triplicate groups of 10 insects. [table]
In the case of `CNC(=O)c1c(C(=O)Nc2cc(Cl)ccc2C)cccc1[N+](=O)[O-]` [compound 3], the “Insecticidal effect, Test Example 1” value is reported as “C (89-80)”.
For `CCNC(=O)c1ccccc1C(=O)Nc1ccc(C(F)(F)F)cc1` [compound 7], the “Insecticidal effect, Test Example 1” value was “A (100)”.
In the case of `CCCNC(=O)c1ccccc1C(=O)Nc1ccc(C(F)(F)F)cc1` [compound 14], the “Insecticidal effect, Test Example 1” value is reported as “A (100)”.
`CCCNC(=O)c1cccc(Cl)c1C(=O)Nc1ccc(OC(F)F)cc1C` [compound 16] was tested, and the “Insecticidal effect, Test Example 1” value was “A (100)”.
In the case of `CC(C)NC(=O)c1ccccc1C(=O)Nc1ccccc1` [compound 20], the “Insecticidal effect, Test Example 1” value is reported as “A (100)”.
With `CC(C)NC(=O)c1ccccc1C(=O)Nc1cccc(SC(F)(F)F)c1` [compound 31] the “Insecticidal effect, Test Example 1” value was “A (100)”.
`CC(C)NC(=O)c1ccccc1C(=O)Nc1ccc(SC(F)F)cc1` [compound 32] was tested, and the “Insecticidal effect, Test Example 1” value was “A (100)”.
`CC(C)NC(=O)c1ccccc1C(=O)Nc1ccc(SCC(F)(F)F)cc1` [compound 33] was tested, and the “Insecticidal effect, Test Example 1” value was “A (100)”.
`CC(C)NC(=O)c1ccccc1C(=O)Nc1ccc(SC(F)(F)C(F)(F)Br)cc1` [compound 37] was tested, and the “Insecticidal effect, Test Example 1” value was “A (100)”.
`Cc1cc(OC(F)(F)F)ccc1NC(=O)c1ccccc1C(=O)NC(C)C` [compound 59] was tested, and the “Insecticidal effect, Test Example 1” value was “A (100)”.
In the case of `Cc1cc(SC(C)C)ccc1NC(=O)c1ccccc1C(=O)NC(C)C` [compound 68], the “Insecticidal effect, Test Example 1” value is reported as “A (100)”.
In the case of `Cc1cc(Oc2c(F)c(F)c(F)c(F)c2F)ccc1NC(=O)c1ccccc1C(=O)NC(C)C` [compound 73], the “Insecticidal effect, Test Example 1” value is reported as “A (100)”.
`Cc1cc(Oc2cccc(C(F)(F)F)c2)ccc1NC(=O)c1ccccc1C(=O)NC(C)C` [compound 74] was tested, and the “Insecticidal effect, Test Example 1” value was “A (100)”.
In the case of `CC(C)NC(=O)c1ccccc1C(=O)Nc1cc(Cl)c(OC(F)F)c(Cl)c1` [compound 84], the “Insecticidal effect, Test Example 1” value is reported as “A (100)”.
For `CC(C)NC(=O)c1c(Cl)cccc1C(=O)Nc1ccc(C(C)(C)C)cc1` [compound 88], the “Insecticidal effect, Test Example 1” value was “A (100)”.
For `CC(C)NC(=O)c1c(Cl)cccc1C(=O)Nc1ccc(OC(F)F)cc1` [compound 92], the “Insecticidal effect, Test Example 1” value was “A (100)”.
In the case of `CC(C)NC(=O)c1c(Cl)cccc1C(=O)Nc1ccc(SCC(F)(F)F)cc1` [compound 101], the “Insecticidal effect, Test Example 1” value is reported as “A (100)”.
With `CC(C)NC(=O)c1c(Cl)cccc1C(=O)Nc1cc(Cl)c(OC(F)F)c(Cl)c1` [compound 151] the “Insecticidal effect, Test Example 1” value was “A (100)”.
With `CC(C)NC(=O)c1cc(Cl)ccc1C(=O)Nc1ccccc1` [compound 168] the “Insecticidal effect, Test Example 1” value was “A (100)”.
With `CC(C)NC(=O)c1cc(Cl)ccc1C(=O)Nc1ccc(F)c(F)c1` [compound 174] the “Insecticidal effect, Test Example 1” value was “A (100)”.
With `CC(C)NC(=O)c1cc(Cl)ccc1C(=O)Nc1cccc(Cl)c1Cl` [compound 175] the “Insecticidal effect, Test Example 1” value was “A (100)”.
For `Cc1ccc(F)cc1NC(=O)c1ccc(Cl)cc1C(=O)NC(C)C` [compound 179], the “Insecticidal effect, Test Example 1” value was “A (100)”.
In the case of `CC(C)NC(=O)c1ccc(Cl)cc1C(=O)Nc1ccc(OC(F)(F)F)cc1` [compound 185], the “Insecticidal effect, Test Example 1” value is reported as “A (100)”.
For `CC(C)NC(=O)c1ccc(Cl)cc1C(=O)Nc1cccc(Cl)c1Cl` [compound 186], the “Insecticidal effect, Test Example 1” value was “D (79-50)”.
For `Cc1c(Cl)cccc1NC(=O)c1cc(Cl)ccc1C(=O)NC(C)C` [compound 189], the “Insecticidal effect, Test Example 1” value was “A (100)”.
`Cc1cc(Cl)ccc1NC(=O)c1cc(Cl)ccc1C(=O)NC(C)C` [compound 190] was tested, and the “Insecticidal effect, Test Example 1” value was “A (100)”.
With `Cc1ccc(F)cc1NC(=O)c1cc(Cl)ccc1C(=O)NC(C)C` [compound 192] the “Insecticidal effect, Test Example 1” value was “A (100)”.
For `CC(C)NC(=O)c1ccc(Cl)cc1C(=O)Nc1ccc(F)c(F)c1F` [compound 194], the “Insecticidal effect, Test Example 1” value was “A (100)”.
With `CCCCc1ccc(NC(=O)c2c(Cl)cccc2C(=O)NC(C)C)cc1` [compound 195] the “Insecticidal effect, Test Example 1” value was “A (100)”.
In the case of `CC(C)NC(=O)c1cccc(Cl)c1C(=O)Nc1ccc(C(F)(F)C(F)(F)C(F)(F)C(F)(F)F)cc1` [compound 199], the “Insecticidal effect, Test Example 1” value is reported as “A (100)”.
In the case of `CC(C)NC(=O)c1cccc(Cl)c1C(=O)Nc1ccc(SCC(F)(F)F)cc1` [compound 202], the “Insecticidal effect, Test Example 1” value is reported as “A (100)”.
In the case of `CC(C)NC(=O)c1cccc(Cl)c1C(=O)Nc1ccc(SC(F)(F)C(F)F)cc1` [compound 203], the “Insecticidal effect, Test Example 1” value is reported as “A (100)”.
With `CC(=O)c1ccc(NC(=O)c2c(Cl)cccc2C(=O)NC(C)C)cc1` [compound 207] the “Insecticidal effect, Test Example 1” value was “A (100)”.
For `CC(C)NC(=O)c1cccc(Cl)c1C(=O)Nc1cccc(Cl)c1Cl` [compound 208], the “Insecticidal effect, Test Example 1” value was “A (100)”.
`CC(C)NC(=O)c1cccc(Cl)c1C(=O)Nc1cc(Cl)c(OC(F)F)c(Cl)c1` [compound 227] was tested, and the “Insecticidal effect, Test Example 1” value was “A (100)”.
`CC(C)NC(=O)c1cccc(Cl)c1C(=O)Nc1ccc(OC(F)F)c(F)c1` [compound 233] was tested, and the “Insecticidal effect, Test Example 1” value was “A (100)”.
With `Cc1c(NC(=O)c2c(Cl)cccc2C(=O)NC(C)C)cccc1OC(F)(F)C(F)Cl` (stereo not shown) [compound 240] the “Insecticidal effect, Test Example 1” value was “A (100)”.
`CC(C)NC(=O)c1cccc(Cl)c1C(=O)Nc1ccc2[nH]c(C(F)(F)F)nc2c1` [compound 256] was tested, and the “Insecticidal effect, Test Example 1” value was “A (100)”.
For `Cc1cc(C)c(NC(=O)c2cccc(Br)c2C(=O)NC(C)C)c(C)c1` [compound 265], the “Insecticidal effect, Test Example 1” value was “A (100)”.
With `Cc1c(NC(=O)c2cccc(Br)c2C(=O)NC(C)C)ccc(OC(F)F)c1C` [compound 295] the “Insecticidal effect, Test Example 1” value was “D (79-50)”.
`Cc1cc(C)c(NC(=O)c2c(Br)cccc2C(=O)NC(C)C)c(C)c1` [compound 304] was tested, and the “Insecticidal effect, Test Example 1” value was “A (100)”.
`Cc1c(Cl)ccc(NC(=O)c2c(Br)cccc2C(=O)NC(C)C)c1C` [compound 308] was tested, and the “Insecticidal effect, Test Example 1” value was “A (100)”.
For `CCc1cc(Cl)ccc1NC(=O)c1c(Br)cccc1C(=O)NC(C)C` [compound 310], the “Insecticidal effect, Test Example 1” value was “A (100)”.
In the case of `Cc1cc(OC(F)F)ccc1NC(=O)c1c(C(=O)NC(C)C)ccc(Br)c1Br` [compound 342], the “Insecticidal effect, Test Example 1” value is reported as “A (100)”.
`Cc1cc(Cl)ccc1NC(=O)c1c(C(=O)NC(C)C)ccc(Br)c1Br` [compound 343] was tested, and the “Insecticidal effect, Test Example 1” value was “A (100)”.
For `Cc1cc(Oc2cccc(C(F)(F)F)c2)ccc1NC(=O)c1cccc(I)c1C(=O)NC(C)C` [compound 398], the “Insecticidal effect, Test Example 1” value was “A (100)”.
With `Cc1cc(SC(C)C)ccc1NC(=O)c1cccc(I)c1C(=O)NC(C)C` [compound 402] the “Insecticidal effect, Test Example 1” value was “A (100)”.
In the case of `CC(C)NC(=O)c1cccc(I)c1C(=O)Nc1ccc(SC(F)(F)C(F)F)cc1` [compound 422], the “Insecticidal effect, Test Example 1” value is reported as “A (100)”.
In the case of `Cc1cc(Cl)ccc1NC(=O)c1c(I)cccc1C(=O)NC(C)C` [compound 428], the “Insecticidal effect, Test Example 1” value is reported as “A (100)”.
`Cc1c(Cl)ccc(NC(=O)c2c(I)cccc2C(=O)NC(C)C)c1C` [compound 434] was tested, and the “Insecticidal effect, Test Example 1” value was “A (100)”.
With `Cc1cc(OC(C)C)ccc1NC(=O)c1c(I)cccc1C(=O)NC(C)C` [compound 442] the “Insecticidal effect, Test Example 1” value was “A (100)”.

Same assay, conditions: mortality judged according to the criterion shown in Test Example 1
`CC(C)NC(=O)c1cccc(I)c1C(=O)Nc1cc(Cl)c(OC(F)F)c(Cl)c1` [compound 449] was tested, and the “Insecticidal effect on diamondback moth (Test Example 1), judged grade” value (from here on “Insecticidal effect on diamondback moth”) was “A (100)”.
With `Cc1cc(Oc2cccc(C(F)(F)F)c2)ccc1NC(=O)c1c(I)cccc1C(=O)NC(C)C` [compound 458] the “Insecticidal effect on diamondback moth” value was “A (100)”.
For `Cc1cc(Oc2c(F)c(F)c(F)c(F)c2F)ccc1NC(=O)c1c(I)cccc1C(=O)NC(C)C` [compound 459], the “Insecticidal effect on diamondback moth” value was “A (100)”.
For `Cc1cc(Oc2ncc(C(F)(F)F)cc2Cl)ccc1NC(=O)c1c(I)cccc1C(=O)NC(C)C` [compound 461], the “Insecticidal effect on diamondback moth” value was “A (100)”.
In the case of `Cc1cc(SC(C)C)ccc1NC(=O)c1c(I)cccc1C(=O)NC(C)C` [compound 462], the “Insecticidal effect on diamondback moth” value is reported as “A (100)”.
`Cc1cc(Sc2ccc(Cl)cc2)ccc1NC(=O)c1c(I)cccc1C(=O)NC(C)C` [compound 463] was tested, and the “Insecticidal effect on diamondback moth” value was “A (100)”.
With `CC(C)NC(=O)c1cccc(I)c1C(=O)Nc1ccc(OC(F)F)cc1C(F)(F)F` [compound 465] the “Insecticidal effect on diamondback moth” value was “A (100)”.
For `CC(C)NC(=O)c1c(F)cccc1C(=O)Nc1ccc(SCC(F)(F)F)cc1` [compound 478], the “Insecticidal effect on diamondback moth” value was “A (100)”.
In the case of `CC(C)NC(=O)c1c(F)cccc1C(=O)Nc1cc(Cl)c(OC(F)F)c(Cl)c1` [compound 506], the “Insecticidal effect on diamondback moth” value is reported as “A (100)”.
`Cc1cc(Oc2c(F)c(F)c(F)c(F)c2F)ccc1NC(=O)c1cccc(F)c1C(=O)NC(C)C` [compound 520] was tested, and the “Insecticidal effect on diamondback moth” value was “A (100)”.
`CC(C)NC(=O)c1cccc(F)c1C(=O)Nc1ccc(OC(F)(F)F)cc1` [compound 537] was tested, and the “Insecticidal effect on diamondback moth” value was “A (100)”.
With `CC(C)NC(=O)c1cccc(F)c1C(=O)Nc1ccc(SCC(F)(F)F)cc1` [compound 539] the “Insecticidal effect on diamondback moth” value was “A (100)”.
`CC(C)NC(=O)c1cccc(F)c1C(=O)Nc1ccc(SC(F)(F)C(F)F)cc1` [compound 540] was tested, and the “Insecticidal effect on diamondback moth” value was “A (100)”.
For `Cc1cc(OC(F)F)ccc1NC(=O)c1c(F)cccc1C(=O)NC(C)C` [compound 559], the “Insecticidal effect on diamondback moth” value was “A (100)”.
With `CC(C)NC(=O)c1cccc(F)c1C(=O)Nc1cc(Cl)c(OC(F)F)c(Cl)c1` [compound 560] the “Insecticidal effect on diamondback moth” value was “A (100)”.
In the case of `Cc1cc(Oc2c(F)c(F)c(F)c(F)c2F)ccc1NC(=O)c1c(F)cccc1C(=O)NC(C)C` [compound 573], the “Insecticidal effect on diamondback moth” value is reported as “A (100)”.
`CC(C)NC(=O)c1c(C(=O)Nc2cccc(Cl)c2)cccc1[N+](=O)[O-]` [compound 587] was tested, and the “Insecticidal effect on diamondback moth” value was “A (100)”.
`CC(C)NC(=O)c1c(C(=O)Nc2ccc(Cl)cc2)cccc1[N+](=O)[O-]` [compound 588] was tested, and the “Insecticidal effect on diamondback moth” value was “A (100)”.
`CC(C)NC(=O)c1c(C(=O)Nc2cccc(Br)c2)cccc1[N+](=O)[O-]` [compound 590] was tested, and the “Insecticidal effect on diamondback moth” value was “A (100)”.
